Data: EP4345091A1, “BENZOIC ACID DERIVATIVES, METHODS AND USES THEREOF” (priority 2022, dated 2024)
Values after ≈ are worked out from the molar mass of the structure shown. Read-outs that look alike come from different tables or passages of the source.

Key:
[1] = tested on: Mycobacterium tuberculosis H37Rv; test: MIC and MBC by broth microdilution against M. tuberculosis H37Rv; type: cell-based, Mycobacterium tuberculosis H37Rv (ATCC 27294)
[2] = tested on: M. smegmatis mc2 155; test: MIC and MBC against M. smegmatis; type: cell-based
[3] = tested on: M. bovis BCG; test: microbe, parasite or virus in culture; type: cell-based; conditions: Mycobacterium tuberculosis variant bovis BCG
[4] = tested on: Mycobacterium Bovis BCG infecting human macrophages THP-1; type: cell-based; conditions: compound concentration 2 µg/ml
[5] = Cytotoxicity assay in THP-1 cells; type: cell-based, human; conditions: human, THP-1 cells, read-out: LC50 (the source's name)
Description: (§1) Cytotoxicity results were obtained through lethal concentration for 50% of the cell population, LC50. Table 6. Results obtained from cytotoxicity assays for the esters, represented by LD50 in µg/mL and comparison with MIC values, in µg/mL with toxicity/activity (T/A) index.
(§2) The T/A index quantitatively is the ratio between the lethal concentration (LC50) given by the minimum inhibitory concentration (MIC).

[6] = tested on: human monocytic cell line THP-1 (ATCC56 TIB202); test: Cytotoxicity assay in THP-1 cells; type: cell-based; conditions: toxicity/activity index: ratio LC50 (THP-1) / MIC (M. tuberculosis H37Rv)
Description: as §1, §2

[7] = tested on: Mycobacterium smegmatis homogenate; test: Stability in Mycobacterium smegmatis homogenate (enzymatic hydrolysis); conditions: Mycobacterium smegmatis homogenate, 37°C
[8] = tested on: M. avium DSM 44156; test: MIC and MBC against M. avium; type: cell-based
[9] = pH 7.4
Description: (§3) Chemical hydrolysis was evaluated in phosphate buffer at physiological pH (7.4) to determine its influence in enzymatic studies.
(§4) 1176 µL pH 7.4 phosphate buffer or pH 5.9 phosphate buffer, 18 µL ACN and 6 µL of a 10-1 M stock solution of the prodrug in ACN were mixed in a 2mL vial. The solution was incubated at 37 °C and 50 µL aliquots were removed, mixed with 450 µL of ACN: H2O 1:1. The solution was analysed by HPLC, the remaining substrate and the correspondent acid were both measured.
(§5) The eluant was a mixture of acetonitrile (60%/70%) and aqueous phosphate buffer with 5% of KH2PO4/H3PO4 0.025M (40%/30%). The flow rate was always 1 mL/1 min and wavelength was set at 230 nm. All quantifications were evaluated using calibration curves from stock solutions.
(§6) The initial substrate concentration was 5 x 10^-4 M in all stability assays. All incubations were carried out at pH 7.4 and 37 °C under agitation using the phosphate buffer described above as diluting agent. […] Acetonitrile (2%) was used in all studies to ensure adequate solubilization of the substrates.

[10] = Chemical stability in phosphate buffer pH 7.4
Description: as §3, §4, §5, §6

[11] = Stability in human plasma (enzymatic hydrolysis)
Description: The studies of stability in human plasma were performed in human plasma diluted to 80% with phosphate buffer pH 7.4 of total concentration 0.05 M and ionic strength 0.15 M at 37°C. […] Study of enzymatic hydrolysis. […] Initial substrate concentration (ester) - 5×10^-4M with 2% ACN.
Pooled human plasma (960 µL), pH 7.4 phosphate buffered saline (216 µL), 18 µL ACN and 6 µL of a 10-1 M stock solution of the prodrug in ACN were mixed in a 2mL vial. The suspensions were incubated at 37 °C and 50 µL aliquots were removed, mixed with 450 µL of ACN: ZnSO4 1% 1:1 and centrifuged. The supernatant was removed and analysed by HPLC, the remaining substrate and the correspondent acid measured.
Two HPLC systems were used. The buffer and plasma stability studies were performed in an HPLC system with a photodiode detector L-3000 Photo Diode Array Detector, Merck-Hitachi L-6000 pump, Merck-Hitachi D-2500 integrator, and Merck RP-8 column. […] The eluant was a mixture of acetonitrile (60%/70%) and aqueous phosphate buffer with 5% of KH2PO4/H3PO4 0.025M (40%/30%). The flow rate was always 1 mL/1 min and wavelength was set at 230 nm. All quantifications were evaluated using calibration curves from stock solutions.
The initial substrate concentration was 5 x 10^-4 M in all stability assays. All incubations were carried out at pH 7.4 and 37 °C under agitation using the phosphate buffer described above as diluting agent. […] Acetonitrile (2%) was used in all studies to ensure adequate solubilization of the substrates. The benzoates were added from 10 to 1M acetonitrile stock solutions. After incubation, aliquots of 50 µL were taken into vials containing 450 µL of a 1:1 solution of 1% zinc sulfate and acetonitrile, mixed in a vortex and centrifuged for 10 min at 15,000 rpm. The supernatant was then injected into the HPLC and analysed for quantification of benzoic acid and remaining benzoate. All quantifications were performed using calibration curves.

[12] = Stability in Mycobacterium smegmatis homogenate (enzymatic hydrolysis); conditions: mycobacterium smegmatis homogenate, pH 7.4
[13] = Mycobacterium tuberculosis, H37RV, M. tuberculosis H37Rv, Table 3
[14] = Mycobacterium tuberculosis, H37RV, M. tuberculosis H37Rv, Table 4
[15] = Mycobacterium tuberculosis, H37RV, M. tuberculosis H37Rv, Tables 3, 6 and 7
[16] = Mycolicibacterium smegmatis, MC2155
[17] = lethal concentration for 50% of the cell population
[18] = Mycobacterium tuberculosis, H37RV

Q: With `CCCCCCCCCCCCCCNC(=O)c1cc([N+](=O)[O-])cc([N+](=O)[O-])c1` [Compound 7f, N-tetradecyl-3.5-dinitrobenzamide] as the compound, how does the MBC [1, 13] read?
A: 0.25 mg/L (≈ 0.613 µM)

Q: What about the MBC [1, 14] of the same compound?
A: ≤ 0.5 mg/L

Q: And the MIC [1, 14]?
A: ≤ 0.5 mg/L

Q: And the MIC [1, 15]?
A: 0.125 mg/L (≈ 0.307 µM)

Q: What about the MBC [2, 16] of the same compound?
A: 4 mg/L (≈ 9.82 µM)

Q: And the MIC [2, 16]?
A: 1 mg/L (≈ 2.45 µM)

Q: What about the MBC [3] of the same compound?
A: 0.25 mg/L (≈ 0.613 µM)

Q: And the MIC [3]?
A: 0.25 mg/L (≈ 0.613 µM)

Q: And the “CFU x10^4” value ([4]; Time 0 days)?
A: 9.2 CFUs per mL

Q: And the “CFU x10^4” value ([4]; Time 1 day)?
A: 14.16 CFUs per mL

Q: What about the “CFU x10^4” value ([4]; Time 3 days) of the same compound?
A: 10.08 CFUs per mL

Q: And the “CFU x10^4” value ([4]; Time 7 days)?
A: 13.91 CFUs per mL

Q: What about the CC50 [5, 17] of the same compound?
A: 330 mg/L (≈ 810 µM)

Q: What about the T/A [6] of the same compound?
A: 2640

Q: What about the “Degradation (%) 24h” value [7] of the same compound?
A: 1%

Q: And the “Degradation (%) 48h” value [7]?
A: 2%

Q: With `CCCCCCCCNC(=O)c1cc([N+](=O)[O-])cc([N+](=O)[O-])c1` [Compound 7c, N-octyl-3.5-dinitrobenzamide] as the compound, how does the MBC [1, 13] read?
A: 0.016 mg/L (≈ 0.0495 µM)

Q: And the MBC [1, 14]?
A: ≤ 0.062 mg/L

Q: And the MIC [1, 14]?
A: ≤ 0.062 mg/L

Q: And the MIC [1, 15]?
A: 0.016 mg/L (≈ 0.0495 µM)

Q: What about the MBC ([8]; Mycobacterium avium, DSM44156) of the same compound?
A: 64 mg/L (≈ 198 µM)

Q: What about the MIC ([8]; Mycobacterium avium, DSM44156) of the same compound?
A: 32 mg/L (≈ 99 µM)

Q: And the MBC [2, 16]?
A: 4 mg/L (≈ 12.4 µM)

Q: What about the MIC [2, 16] of the same compound?
A: 0.25 mg/L (≈ 0.773 µM)

Q: What about the MBC [3] of the same compound?
A: 0.015 mg/L (≈ 0.0464 µM)

Q: And the MIC [3]?
A: 0.015 mg/L (≈ 0.0464 µM)

Q: And the CC50 [5, 17]?
A: 97 mg/L (≈ 300 µM)

Q: And the T/A [6]?
A: 6063

Q: What about the “Degradation (%) 24h” value [9] of the same compound?
A: 0%

Q: What about the “Degradation (%) 48h” value [9] of the same compound?
A: 0%

Q: What about the “Degradation (%) 72h” value [9] of the same compound?
A: 0%

Q: What about the “Degradation (%) 168h” value [9] of the same compound?
A: 0%

Q: What about the “Degradation (%) 332h” value [9] of the same compound?
A: 0%

Q: And the “Degradation (%) 24h” value [7]?
A: 3%

Q: What about the “Degradation (%) 48h” value [7] of the same compound?
A: 5%

Q: With `CCCCNC(=O)c1cc([N+](=O)[O-])cc([N+](=O)[O-])c1` [Compound 7a, N-butyl-3.5-dinitrobenzamide] as the compound, how does the MBC [3] read?
A: 1 mg/L (≈ 3.74 µM)

Q: And the MIC [3]?
A: 0.5 mg/L (≈ 1.87 µM)

Q: What about the CC50 [5, 17] of the same compound?
A: 26 mg/L (≈ 97.3 µM)

Q: What about the T/A [6] of the same compound?
A: 52

Q: And the “Degradation (%) 24h” value [10]?
A: 0%

Q: What about the “Degradation (%) 48h” value [10] of the same compound?
A: 0%

Q: And the “Degradation (%) 72h” value [10]?
A: 0%

Q: What about the “Degradation (%) 168h” value [10] of the same compound?
A: 0%

Q: And the “Degradation (%) 332h” value [10]?
A: 0%

Q: What about the “Degradation (%) 24h” value [11] of the same compound?
A: 0%

Q: And the “Degradation (%) 48h” value [11]?
A: 0%

Q: What about the “Degradation (%) 72h” value [11] of the same compound?
A: 0%

Q: And the half-life at 500 µM [12]?
A: 22.9 ± 1.5 h

Q: What about the “Degradation (%) 24h” value [7] of the same compound?
A: 52%

Q: What about the “Degradation (%) 48h” value [7] of the same compound?
A: 77%

Q: For `CCCCCCCCCCCCNC(=O)c1cc([N+](=O)[O-])cc([N+](=O)[O-])c1` [Compound 7e, N-dodecyl-3.5-dinitrobenzamide], which MBC [1, 13] is on record?
A: 0.5 mg/L (≈ 1.32 µM)

Q: What about the MBC [1, 14] of the same compound?
A: 0.5 mg/L (≈ 1.32 µM)

Q: And the MIC [1, 14]?
A: 0.5 mg/L (≈ 1.32 µM)

Q: What about the MIC [1, 15] of the same compound?
A: 0.5 mg/L (≈ 1.32 µM)

Q: And the MBC ([8]; Mycobacterium avium, DSM44156)?
A: > 341 mg/L

Q: What about the MIC ([8]; Mycobacterium avium, DSM44156) of the same compound?
A: > 341 mg/L

Q: What about the MBC [2, 16] of the same compound?
A: > 2.66 mg/L

Q: And the MIC [2, 16]?
A: 0.66 mg/L (≈ 1.74 µM)

Q: What about the MBC [3] of the same compound?
A: 0.166 mg/L (≈ 0.437 µM)

Q: What about the MIC [3] of the same compound?
A: 0.083 mg/L (≈ 0.219 µM)

Q: And the CC50 [5, 17]?
A: 72 mg/L (≈ 190 µM)

Q: What about the T/A [6] of the same compound?
A: 144

Q: What about the “Degradation (%) 24h” value [10] of the same compound?
A: 0%

Q: What about the “Degradation (%) 48h” value [10] of the same compound?
A: 0%

Q: And the “Degradation (%) 72h” value [10]?
A: 0%

Q: And the “Degradation (%) 168h” value [10]?
A: 0%

Q: What about the “Degradation (%) 332h” value [10] of the same compound?
A: 0%

Q: And the “Degradation (%) 24h” value [11]?
A: 0%

Q: And the “Degradation (%) 48h” value [11]?
A: 0%

Q: What about the “Degradation (%) 72h” value [11] of the same compound?
A: 0%

Q: What about the “Degradation (%) 24h” value [7] of the same compound?
A: 1%

Q: And the “Degradation (%) 48h” value [7]?
A: 2%

Q: Which MBC [1] does the source give for “N-butyl-3.5-dinitrobenzamide [Compound 7a]” here?
A: 0.5 mg/L

Q: And the MIC [1]?
A: 0.5 mg/L

Q: What about the MBC ([8]; M. avium DSM 44156) of the same compound?
A: 512 mg/L

Q: What about the MIC ([8]; M. avium DSM 44156) of the same compound?
A: 64 mg/L

Q: And the MBC ([2]; M. smegmatis mc2 155)?
A: 4 mg/L

Q: What about the MIC ([2]; M. smegmatis mc2 155) of the same compound?
A: 4 mg/L

Q: Which results are given for `CCCCCCNC(=O)c1cc([N+](=O)[O-])cc([N+](=O)[O-])c1` [Compound 7b, N-hexyl-3.5-dinitrobenzamide]?
A: MBC [1, 13]: 0.031 mg/L (≈ 0.105 µM); MBC [1, 14]: ≤ 0.5 mg/L; MIC [1, 14]: ≤ 0.5 mg/L; MIC [1, 15]: 0.031 mg/L (≈ 0.105 µM); MBC [2, 16]: 1 mg/L (≈ 3.39 µM); MIC [2, 16]: 1 mg/L (≈ 3.39 µM); MBC [3]: 0.25 mg/L (≈ 0.847 µM); MIC [3]: 0.25 mg/L (≈ 0.847 µM); CFU x10^4 ([4]; Time 0 days): 9.2 CFUs per mL; CFU x10^4 ([4]; Time 1 day): 4.58 CFUs per mL; CFU x10^4 ([4]; Time 3 days): 0.40 CFUs per mL; CFU x10^4 ([4]; Time 7 days): 0.05 CFUs per mL; CC50 [5, 17]: 361 mg/L (≈ 1220 µM); T/A [6]: 11645; half-life at 500 µM [12]: 82.5 ± 1.4 h; Degradation (%) 24h [7]: 18%; Degradation (%) 48h [7]: 33%

Q: Which MBC ([1]; M. tuberculosis H37Rv, Table 4) does the source give for `CCCCCCCCCCCCCCCCNC(=O)c1cc([N+](=O)[O-])cc([N+](=O)[O-])c1` [Compound 7g, N-hexadecyl-3.5-dinitrobenzamide] here?
A: 2 mg/L (≈ 4.59 µM)

Q: What about the MIC ([1]; M. tuberculosis H37Rv, Table 4) of the same compound?
A: 2 mg/L (≈ 4.59 µM)

Q: And the MBC [1, 18]?
A: 2 mg/L (≈ 4.59 µM)

Q: And the MIC [1, 18]?
A: 2 mg/L (≈ 4.59 µM)

Q: And the MBC [2, 16]?
A: > 64 mg/L

Q: And the MIC [2, 16]?
A: 32 mg/L (≈ 73.5 µM)

Q: And the MBC [3]?
A: 4 mg/L (≈ 9.18 µM)

Q: What about the MIC [3] of the same compound?
A: 2 mg/L (≈ 4.59 µM)

Q: What about the CC50 ([5]; n/d (no toxicity at maximum tested dose)) of the same compound?
A: > 512 mg/L

Q: And the “Degradation (%) 24h” value [7]?
A: 0%

Q: And the “Degradation (%) 48h” value [7]?
A: 0%

Q: Which results are given for `CCCCCCCCCCNC(=O)c1cc([N+](=O)[O-])cc([N+](=O)[O-])c1` [Compound 7d, N-decyl-3.5-dinitrobenzamide]?
A: MBC [1, 13]: 0.063 mg/L (≈ 0.179 µM); MBC [1, 14]: ≤ 0.5 mg/L; MIC [1, 14]: ≤ 0.5 mg/L; MIC [1, 15]: 0.063 mg/L (≈ 0.179 µM); MBC [2, 16]: 1 mg/L (≈ 2.85 µM); MIC [2, 16]: 1 mg/L (≈ 2.85 µM); MBC [3]: 0.062 mg/L (≈ 0.176 µM); MIC [3]: 0.062 mg/L (≈ 0.176 µM); CFU x10^4 ([4]; Time 0 days): 9.2 CFUs per mL; CFU x10^4 ([4]; Time 1 day): 7.33 CFUs per mL; CFU x10^4 ([4]; Time 3 days): 0.32 CFUs per mL; CFU x10^4 ([4]; Time 7 days): 0.03 CFUs per mL; CC50 [5, 17]: 53 mg/L (≈ 151 µM); T/A [6]: 841; Degradation (%) 24h [7]: 1%; Degradation (%) 48h [7]: 2%
